Results reported in patent US11572548B2, “Reaction mixture for synthesis of alpha1-2-fucosides” (The Regents of the University of California, priority 2015, dated 2023).
Entries after “also recorded” stand apart in the source; their conditions may differ.

What was measured:
[1] = target: T1, His6-Te2FT (Thermosynechococcus vestitus, UniProt Q8DK72); assay: Kinetics of α1-2-fucosyltransferase activity by HPLC assays; format: biochemical, Thermosynechococcus elongatus BP-1; conditions: for Km / kcat: 2FT activity, apparent, pH 6.0, 37° C., MgCl2 20 mM, other substrate fixed at 1 mM
Procedure: Typical enzymatic assays were carried out in duplicate in a total volume of 10 μL in Tris-HCl buffer (pH 6.0, 200 mM) containing MgCl2 (20 mM), GDP-fucose, Galβ1-3GlcNAcβ2AA, and the recombinant His6-Te2FT (0.75 μg). All reactions were allowed to proceed for 10 min at 37° C. Apparent kinetic parameters were obtained by varying the GDP-fucose concentration from 0.1 to 10.0 mM (0.1, 0.2, 0.4, 1.0, 5.0, and 10.0 mM) and a fixed concentration of Galβ1-3GlcNAcβ2AA (1 mM); or a fixed concentration of GDP-fucose (1 mM) and varied concentrations of Galβ1-3GlcNAcβ2AA from 0.1 to 10.0 mM (0.1, 0.2, 0.4, 5.0, and 10.0 mM). The reaction mixture was quenched by boiling for 2 minutes and diluted 60-fold for detection. Apparent kinetic parameters were obtained by fitting the data into the Michaelis-Menten equation using Grafit 5.0.

[2] = target: T1, His6-Te2FT; assay: Kinetics of GDP-fucose hydrolysis by capillary electrophoresis assays; format: biochemical, Thermosynechococcus elongatus BP-1
Procedure: The enzymatic assays were carried out in duplicate in a total volume of 10 μL in Tris-HCl buffer (200 mM, pH 9.0) containing MgCl2 (20 mM), GDP-fucose and the recombinant protein (4.5 μg). Reactions were allowed to proceed for 30 min at 37° C. Apparent kinetic parameters were obtained by varying the final GDP-fucose concentration from 0.4 to 2.0 mM (0.4, 0.5, 0.6, 0.8, 1.0 and 2.0 mM). Apparent kinetic parameters were obtained by fitting the data (the average values of duplicate assay results) into the Michaelis-Menten equation using Grafit 5.0.

[3] = target: T1, His6-Te2FT; assay: Acceptor substrate specificity studies of His6-Te2FT; format: biochemical, Thermosynechococcus elongatus BP-1
[4] = target: T1, His6-Te2FT; assay: Effects of metal ions, DTT and EDTA on α1-2-fucosyltransferase activity; format: biochemical, Thermosynechococcus elongatus BP-1; conditions: pH 7.5; for effect on α1-2-fucosyltransferase activity: 10 mM added; for effect on α1-2-fucosyltransferase activity / enhancement of α1-2-fucosyltransferase activity: acceptor Galβ1-3GlcNAcβ2AA; for enhancement of α1-2-fucosyltransferase activity: 5-20 mM added
Procedure: For metal effects, various concentrations (5 mM, 10 mM, or 20 mM) of MgCl2 or MnCl2 were added and EDTA (as a chelating agent) (10 mM) and DTT (10 mM) were used in a Tris-HCl buffer (pH 7.5, 200 mM) to analyze their effects on the α1-2-fucosyltransferase activity of His6-Te2FT for acceptor Galβ1-3GlcNAcβ2AA. Reaction without metal ions, EDTA and DTT was used as a control. The effects of metal ions Mg^2+ and Mn^2+ as well as DTT and the chelating agent EDTA on the α1-2-fucosyltransferase activity of His6-Te2FT toward and acceptor Galβ1-3GlcNAcβ2AA were examined at pH 7.5.

[5] = tested on: Bifidobacterium animalis subsp. lactis (B. lactis) ATCC 27536; assay: Growth of bifidobacteria on mMRS medium with substrate as sole carbohydrate source; format: cell-based; conditions: 2% (wt/vol) in mMRS, 37° C., anaerobic, OD600
Procedure: (§1) B. infantis 15697 and B. animalis 27536 were tested for growth in the presence of glucose, HMOS, and LNFP I. Growth assays were performed as previously described.^[35] Briefly, two microliters of each resulting overnight culture was used to inoculate 150 μL of modified MRS medium (mMRS), devoid of glucose and supplemented with 2% (wt/vol) of each sterile-filtered substrate as the sole carbohydrate source. The medium was supplemented with 0.05% (wt/vol) 1-cysteine, and in all the cases the cultures in the wells of the microtiter plates were covered with 30 μL of sterile mineral oil to avoid evaporation. The incubations were carried out at 37° C. in an anaerobic chamber (Coy Laboratory Products). Cell growth was monitored in real time by assessing optical density at 600 nm (OD600) using a BioTek PowerWave 340 plate reader (BioTek, Winoosky, Vt.) every 30 min, preceded by 30 seconds of shaking at variable speed. Two biological replicates and three technical replicates each were performed for every strain. Fermentations were carried out in triplicate.

[6] = tested on: Bifidobacterium longum subsp. infantis (B. infantis) ATCC 15697; assay: as above; format: cell-based; conditions: 2% (wt/vol) in mMRS, 37° C., anaerobic, OD600
Procedure: as §1

[7] = pH profile of α1-2-fucosyltransferase activity of His6-Te2FT by HPLC; format: biochemical
Procedure: Each reaction was carried out in duplicate at 37° C. for 10 minutes in a total volume of 10 μL in a buffer (200 mM) with pH varying from 3.0 to 11.0. The buffers used were: Citric, pH 3.0-4.0, NaOAc/HOAc, pH 4.5, MES, pH 5.0-6.5; Tris-HCl, pH 7.0-9.0; and CAPS, pH 10.0-11.0. The reaction system was: GDP-fucose (1 mM), fluorophore 2-anthranilic acid (2AA)-labeled oligosaccharide (Galβ1-3GlcNAcβ2AA, 1 mM), MgCl2 (20 mM), and the recombinant enzyme, His6-Te2FT (0.25 μg). The reaction mixture was stopped by boiling for 2 min and then adding an equal volume of water (10 μL) to make a […] dilution for Galβ1-3GlcNAcβ2AA. The samples were analyzed by a Shimadzu LC-2010A system equipped with a membrane online degasser, a temperature control unit and a fluorescence detector. A reverse-phase Premier C18 column (250×4.6 mm i.d., 5 μm particle size, Shimadzu) protected with a C18 guard column cartridge was used. The mobile phase was 20% acetonitrile. The ratio of the absorbance for fluorescent-labeled product at 315-400 nm was determined.

[8] = pH profile of GDP-fucose hydrolysis of His6-Te2FT by capillary electrophoresis; format: biochemical
Procedure: Each reaction was carried out in duplicate at 37° C. for 30 minutes in a total volume of 10 μL in a buffer (200 mM) with pH varying from 3.0 to 11.0. The buffers used were: Citric, pH 3.0-4.0, NaOAc/HOAc, pH 4.5, MES, pH 5.0-6.5; Tris-HCl, pH 7.0-9.0; and CAPS, pH 10.0-11.0 containing GDP-fucose (1 mM), MgCl2 (20 mM) and the recombinant enzyme (3.75 μg). Reactions were stopped by boiling for 2 min followed by adding an equal volume of water (10 μL) to make a two-fold dilution. The samples were kept on ice until aliquots of 6 μL were withdrawn and analyzed by a Beckman P/ACE MDQ capillary electrophoresis system (60 cm×75 μm i.d.) with a PDA detector. The ratio of the absorbance for GDP-fucose and GDP at 254 nm was determined at different concentrations (2.5, 5, and 10 mM). All assays were carried out in duplicate.

[9] = Effect of temperature on α1-2-fucosyltransferase activity of His6-Te2FT; format: biochemical
Procedure: Assays were carried out in a total volume of 10 μL in a Tris-HCl buffer (pH 6.0, 200 mM) at temperatures ranging from 15° C. to 70° C. The reaction mixture contained GDP-fucose (1 mM), MgCl2 (20 mM), Galβ1-3GlcNAcβ2AA (1 mM), and the recombinant His6-Te2FT (1.5 μg). All reactions were allowed to proceed for 10 minutes at various temperatures. The reaction was stopped by boiling for 2 minutes, and diluted 60-fold for detection.

[10] = Effect of freeze-dry cycle (lyophilization and rehydration) on His6-Te2FT activity; format: biochemical; conditions: lyophilized, rehydrated
Procedure: Purified His6-Te2FT samples were prepared essentially as described in Example 1, and were dialyzed against 20 mM Tris-HCl without glycerol and lyophilized. The Te2FT powders were stored at −70° C. for 20 days, or for several months. After that, the dried powder was dissolved in water and 20 mM Tris-HCl buffer, respectively. The activities of the lyophilized His6-Te2FT samples were compared with the same amount and concentration of freshly prepared Te2FT samples. The reaction mixture was GDP-fucose (1 mM), Galβ1-3GlcNAcβ2AA, (1 mM), MgCl2 (20 mM), and His6-Te2FT (0.75 μg). All reactions were performed in duplicate and allowed to proceed for 10 minutes at 37° C.

[11] = GDP-Fuc hydrolysis, apparent, pH 9.0, 37° C., MgCl2 20 mM
[12] = acceptor Galβ1-3GlcNAcβ2AA, 37° C., 10 minutes

## C[C@@H]1O[C@H](OP(=O)(O)OP(=O)(O)OC[C@H]2O[C@@H](n3cnc4c(=O)[nH]c(N)nc43)[C@H](O)[C@@H]2O)[C@@H](O)[C@H](O)[C@@H]1O [GDP-fucose, Guanosine 5′-diphosphate-fucose]
[1]
  Km: 730 ± 680 µM
  kcat: 0.438 ± 0.013 s⁻¹
[1]; His6-Te2FT versus GST-WbsJ, acceptor Galβ1-3GlcNAcβ2AA
  kcat value for GDP-fucose, higher compared to GST-WbsJ: 201 fold
[1]; His6-Te2FT versus His6Prop-WgbL, acceptor Galβ1-3GlcNAcβ2AA
  kcat value for GDP-fucose, higher compared to His6Prop-WgbL: 6.7 fold
[1]; His6-Te2FT versus Hp2FT, acceptor Galβ1-3GlcNAcβ2AA
  kcat value for GDP-fucose, higher compared to Hp2FT: 14.6 fold
[1]; His6-Te2FT versus WbgL
  kcat/KM value for GDP-Fuc, higher than WbgL: 2.5 fold
[1]; His6-Te2FT versus WbsJ
  kcat/KM value for GDP-Fuc, higher than WbsJ: 29.2 fold
[2]; [11]
  Km: 560 ± 210 µM
  kcat: 0.005 ± 0.001 s⁻¹
[2]; His6-Te2FT, ratio of kcat/KM
  GDP-fucose (donor) hydrolysis activity weaker than α1-2-fucosyltransferase activity: 47 fold

## Galβ1-3GlcNAcβOR
[3]
  suitability as acceptor substrate for adding α1-2-linked fucose: worked well

## Gal β1-3GlcNAcβ1-3Galβ1-4Glc [LNT]
[3]
  suitability as acceptor substrate for adding α1-2-linked fucose: excellent acceptor

## Galβ1-3GlcNAcβ2AA
[1]
  Km: 790 ± 110 µM
  kcat: 0.333 ± 0.012 s⁻¹
[1]; His6-Te2FT versus other 2FTs
  affinity for the acceptor compared to GST-WbsJ, His6Prop-WgbL and Hp2FT: higher affinity

## Galβ1-4GlcβOR
[3]
  suitability as acceptor substrate for adding α1-2-linked fucose: not good acceptors

## Galβ1-4GlcNAcβOR
[3]
  suitability as acceptor substrate for adding α1-2-linked fucose: not good acceptors

## O[C@H](CS)[C@H](O)CS (racemic) [DTT, dithiothreitol]
[4]
  effect on α1-2-fucosyltransferase activity: decreased His6-Te2FT activity moderately

## [Cl-].[Cl-].[Mg+2] [Mg^2+, MgCl2]
[4]
  enhancement of α1-2-fucosyltransferase activity: about two-fold

## Galβ1-3GalNAcβOR
[3]
  suitability as acceptor substrate for adding α1-2-linked fucose: worked well

## [Cl][Mn][Cl] [Mn^2+, MnCl2]
[4]
  enhancement of α1-2-fucosyltransferase activity: about two-fold

## O=C(O)CN(CCN(CC(=O)O)CC(=O)O)CC(=O)O [EDTA, ethylenediaminetetraacetic acid]
[4]
  effect on α1-2-fucosyltransferase activity: decreased its activity only slightly

## Galβ1-3GalNAcαOR
[3]
  suitability as acceptor substrate for adding α1-2-linked fucose: worked well

## Gal1-3GlcNAcαOR
[3]
  suitability as acceptor substrate for adding α1-2-linked fucose: worked well

## CC(=O)N[C@H]1[C@H](O[C@H]2[C@@H](O)[C@@H](CO)O[C@@H](O[C@H]3[C@H](O)[C@@H](O)C(O)O[C@@H]3CO)[C@@H]2O)O[C@H](CO)[C@@H](O)[C@@H]1O[C@@H]1O[C@H](CO)[C@H](O)[C@H](O)[C@H]1O[C@@H]1O[C@@H](C)[C@@H](O)[C@@H](O)[C@@H]1O (some centres unmarked) [LNFP I, Fucα1-2Galβ1-3GlcNAcβ1-3Galβ1-4Glc]
[5]
  growth with substrate as sole carbon source: failed to grow
[6]
  growth compared with growth on glucose: remarkably faster
  growth with substrate as sole carbon source: grew well; also recorded: selectively consumed as a carbon source

B1: His6-Te2FT: N-His6-tagged recombinant α1-2-fucosyltransferase from Thermosynechococcus elongatus BP-1 (SEQ ID NO:1) (protein, listed as Thermosynechococcus elongatus)
chain: MIIVHLCGGLGNQMFQYAAGLAAAHRIGSEVKFDTHWFDATCLHQGLELRRVFGLELPEPSSKDLRKVLGACVHPAVRRLLAGHFLHGLRPKSLVIQPHFHYWTGFEHLPDNVYLEGYWQSERYFSNIADIIRQQFRFVEPLDPHNAALMDEMQSGVSVSLHIRRGDYFNNPQMRRVHGVDLSEYYPAAVATMIEKTNAERFYVFSDDPQWVLEHLKLPVSYTVVDHNRGAASYRDMQLMSACRHHIIANSTFSWWGAWLNPRPDKVVIAPRHWFNVDVFDTRDLYCPGWIVL
modifications: N-terminal His6 tag
[7]; [12]
  pH of optimal activities: 4.5-6.0
  pH range in which active: 4.0-10.0
[7]; pH 6.5
  activity as % of the optimal activity: About 85%
[8]; 37° C., 30 minutes
  optimal pH for the GDP-fucose hydrolysis activity: 9.5
[8]; pH range 5.0-8.0, 15-fold more enzyme and 3-fold longer reaction time
  donor hydrolysis activity: at a minimum
[4]
  requirement of a divalent metal ion for α1-2-fucosyltransferase activity: not required
[9]; 15° C. and 20° C.
  activity at low temperature: Low activity
[9]; 65° C. or 70° C.
  activity at high temperature: minimal activity
[9]; pH 6.0, 10 minutes
  temperature range in which active: 25-60 °C
  temperature range of optimal activities: 30-45 °C
[10]
  stability to freeze-dry treatment: can survive a freeze-dry treatment
